Measured values as given in the NIST ThermoML archive (doi:10.1016/j.fluid.2019.05.003).

Test: xn = mol fraction of the nth substance listed
Conditions: 101 kPa, Liquid; for mass density: Vibrating tube method; for viscosity: Falling or rolling sphere viscometry

CC[N+](C)(C)CCO.[Br-] [ethyl(2-hydroxyethyl)dimethylammonium bromide] + O
Conditions	mass density [kg/m3]	viscosity [mPa·s]
323.15 K, x1 = 0.026	1050.7	–
323.15 K, x1 = 0.049	1091.4	–
323.15 K, x1 = 0.068	1120.1	–
323.15 K, x1 = 0.086	1142.5	–
323.15 K, x1 = 0.119	1177.1	–
323.15 K, x1 = 0.156	1205.9	–
323.15 K, x1 = 0.185	1224.1	–
323.15 K, x1 = 0.214	1239.6	–
323.15 K, x1 = 0.257	1258.7	–
323.15 K, x1 = 0.319	1279	–
328.15 K, x1 = 0.026	1048.6	0.72
328.15 K, x1 = 0.049	1088.9	0.902
328.15 K, x1 = 0.068	1117.2	1.132
328.15 K, x1 = 0.086	1139.7	1.382
328.15 K, x1 = 0.119	1174.2	2.034
328.15 K, x1 = 0.156	1203	2.962
328.15 K, x1 = 0.185	1221.2	4.143
328.15 K, x1 = 0.214	1236.6	5.498
328.15 K, x1 = 0.257	1255.7	8.108
328.15 K, x1 = 0.319	1276	12.84
333.15 K, x1 = 0.026	1046.5	0.669
333.15 K, x1 = 0.049	1085.9	0.837
333.15 K, x1 = 0.068	1114.5	1.046
333.15 K, x1 = 0.086	1136.8	1.273
333.15 K, x1 = 0.119	1171.2	1.857
333.15 K, x1 = 0.156	1200.1	2.679
333.15 K, x1 = 0.185	1218.2	3.576
333.15 K, x1 = 0.214	1233.6	4.864
333.15 K, x1 = 0.257	1252.7	7.142
333.15 K, x1 = 0.319	1273	11.49
338.15 K, x1 = 0.026	1044.3	0.632
338.15 K, x1 = 0.049	1083.9	0.786
338.15 K, x1 = 0.068	1112.2	0.965
338.15 K, x1 = 0.086	1134.1	1.174
338.15 K, x1 = 0.119	1168.1	1.707
338.15 K, x1 = 0.156	1197.1	2.439
338.15 K, x1 = 0.185	1215.2	3.122
338.15 K, x1 = 0.214	1230.6	4.315
338.15 K, x1 = 0.257	1249.7	6.33
338.15 K, x1 = 0.319	1270	10.29
343.15 K, x1 = 0.026	1042.2	0.588
343.15 K, x1 = 0.049	1081.4	0.737
343.15 K, x1 = 0.068	1109.6	0.906
343.15 K, x1 = 0.086	1131.4	1.112
343.15 K, x1 = 0.119	1165.6	1.569
343.15 K, x1 = 0.156	1194	2.202
343.15 K, x1 = 0.185	1212.1	2.835
343.15 K, x1 = 0.214	1227.6	3.849
343.15 K, x1 = 0.257	1246.6	5.548
343.15 K, x1 = 0.319	1266.9	9.319
348.15 K, x1 = 0.026	1040.1	0.56
348.15 K, x1 = 0.049	1078.9	0.679
348.15 K, x1 = 0.068	1107	0.853
348.15 K, x1 = 0.086	1128.3	1.071
348.15 K, x1 = 0.119	1162.8	1.454
348.15 K, x1 = 0.156	1190.9	2.022
348.15 K, x1 = 0.185	1209.4	2.576
348.15 K, x1 = 0.214	1224.5	3.479
348.15 K, x1 = 0.257	1243.6	4.96
348.15 K, x1 = 0.319	1263.9	8.658
